Data from BindingDB's records for doi:10.1074/jbc.M110.206193 (Takeda Pharmaceutical, 2011).

Assays:
[1] = molecular target: Epidermal growth factor receptor (Homo sapiens, UniProt P00533); experiment: Enzyme Assay; conditions: pH 7.5
Protocol: (§1) The EGFR, HER2 and HER4 kinase assay were performed using radiolabeled [gamma-32P] ATP from GE Healthcare.

[2] = molecular target: Receptor tyrosine-protein kinase erbB-4 (Homo sapiens, UniProt Q15303); experiment: Enzyme Assay; conditions: pH 7.5
Protocol: as §1

Receptor tyrosine-protein kinase erbB-4, sequence (Q15303 whole entry): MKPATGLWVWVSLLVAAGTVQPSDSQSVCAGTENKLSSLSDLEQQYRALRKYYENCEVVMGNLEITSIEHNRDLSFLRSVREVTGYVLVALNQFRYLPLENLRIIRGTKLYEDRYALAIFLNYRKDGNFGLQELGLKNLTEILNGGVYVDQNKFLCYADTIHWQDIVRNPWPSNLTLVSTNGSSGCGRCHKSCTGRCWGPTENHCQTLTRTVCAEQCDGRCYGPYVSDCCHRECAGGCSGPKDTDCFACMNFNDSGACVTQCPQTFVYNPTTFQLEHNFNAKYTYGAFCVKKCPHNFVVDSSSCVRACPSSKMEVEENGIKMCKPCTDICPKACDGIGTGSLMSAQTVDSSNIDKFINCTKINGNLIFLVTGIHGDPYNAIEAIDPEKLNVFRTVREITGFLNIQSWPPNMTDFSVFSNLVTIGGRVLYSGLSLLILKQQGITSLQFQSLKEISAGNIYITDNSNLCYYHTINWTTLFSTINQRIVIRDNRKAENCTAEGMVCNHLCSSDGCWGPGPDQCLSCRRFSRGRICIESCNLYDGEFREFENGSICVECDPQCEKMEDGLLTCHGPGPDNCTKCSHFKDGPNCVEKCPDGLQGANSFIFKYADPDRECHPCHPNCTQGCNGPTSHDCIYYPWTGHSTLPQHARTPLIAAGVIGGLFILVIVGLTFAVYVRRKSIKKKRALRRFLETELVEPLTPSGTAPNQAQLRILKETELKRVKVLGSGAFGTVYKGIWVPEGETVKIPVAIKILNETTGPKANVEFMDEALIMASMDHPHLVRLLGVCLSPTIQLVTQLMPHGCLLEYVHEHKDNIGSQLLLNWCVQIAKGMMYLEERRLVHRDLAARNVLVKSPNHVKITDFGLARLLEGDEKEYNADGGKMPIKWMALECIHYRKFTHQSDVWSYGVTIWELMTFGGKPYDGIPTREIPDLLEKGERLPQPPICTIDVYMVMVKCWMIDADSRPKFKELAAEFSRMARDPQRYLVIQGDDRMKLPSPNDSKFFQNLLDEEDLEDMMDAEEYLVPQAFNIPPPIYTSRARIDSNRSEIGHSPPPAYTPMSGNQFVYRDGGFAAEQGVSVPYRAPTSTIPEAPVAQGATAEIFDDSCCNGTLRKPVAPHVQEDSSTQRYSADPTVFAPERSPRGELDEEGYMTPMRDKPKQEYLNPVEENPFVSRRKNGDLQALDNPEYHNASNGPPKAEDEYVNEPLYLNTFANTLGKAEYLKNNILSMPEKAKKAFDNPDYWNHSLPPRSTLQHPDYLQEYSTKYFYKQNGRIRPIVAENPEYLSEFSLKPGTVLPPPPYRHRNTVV
Epidermal growth factor receptor, sequence (P00533 whole entry): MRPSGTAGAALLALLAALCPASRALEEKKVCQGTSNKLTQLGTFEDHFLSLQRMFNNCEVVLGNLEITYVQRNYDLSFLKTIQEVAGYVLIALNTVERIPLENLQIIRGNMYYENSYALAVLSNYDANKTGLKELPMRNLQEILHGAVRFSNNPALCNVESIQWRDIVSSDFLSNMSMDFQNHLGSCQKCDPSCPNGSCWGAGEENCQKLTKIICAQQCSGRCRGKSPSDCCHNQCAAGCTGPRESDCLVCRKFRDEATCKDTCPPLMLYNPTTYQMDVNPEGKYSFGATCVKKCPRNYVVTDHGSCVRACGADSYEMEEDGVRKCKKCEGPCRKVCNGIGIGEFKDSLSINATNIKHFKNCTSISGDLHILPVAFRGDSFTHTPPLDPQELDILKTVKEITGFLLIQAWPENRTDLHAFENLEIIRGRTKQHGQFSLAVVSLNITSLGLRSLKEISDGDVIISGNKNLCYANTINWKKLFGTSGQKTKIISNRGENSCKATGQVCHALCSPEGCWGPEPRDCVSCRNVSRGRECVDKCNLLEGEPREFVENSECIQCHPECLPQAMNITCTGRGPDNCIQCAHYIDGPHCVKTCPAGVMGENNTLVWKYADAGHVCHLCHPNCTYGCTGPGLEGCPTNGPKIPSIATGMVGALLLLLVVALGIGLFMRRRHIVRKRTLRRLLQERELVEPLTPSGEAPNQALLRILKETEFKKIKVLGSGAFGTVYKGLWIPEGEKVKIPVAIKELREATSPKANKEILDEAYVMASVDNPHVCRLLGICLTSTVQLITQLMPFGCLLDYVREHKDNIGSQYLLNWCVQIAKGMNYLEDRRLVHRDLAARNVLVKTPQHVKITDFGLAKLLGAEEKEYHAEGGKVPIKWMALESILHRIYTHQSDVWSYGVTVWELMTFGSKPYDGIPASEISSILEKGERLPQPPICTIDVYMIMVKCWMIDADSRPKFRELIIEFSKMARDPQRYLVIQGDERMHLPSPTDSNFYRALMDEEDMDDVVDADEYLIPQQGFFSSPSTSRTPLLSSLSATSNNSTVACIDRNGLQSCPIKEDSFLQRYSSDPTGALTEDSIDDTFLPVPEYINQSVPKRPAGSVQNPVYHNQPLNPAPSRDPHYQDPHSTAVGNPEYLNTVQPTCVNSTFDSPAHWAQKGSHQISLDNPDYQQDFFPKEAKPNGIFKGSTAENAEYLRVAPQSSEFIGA

IC50 [1]: 429 nM
IC50 [2]: > 10000 nM
Structure (SMILES): OCCOCn1ccc2ncnc(Nc3cnc(Oc4cccc(C(F)(F)F)c4)c(Cl)c3)c21 [SYR127063]
